Experiments:
Assay in all cases: relative viability (nuclei count vs DMSO), 5 days (fraction); higher = more cells survive
Alisertib + Vorinostat = compound: COc1cc(Nc2ncc3c(n2)-c2ccc(Cl)cc2C(c2c(F)cccc2OC)=NC3)ccc1C(=O)O [Alisertib] + O=C(CCCCCCC(=O)Nc1ccccc1)NO [Vorinostat] (partner 1 µM)
Method in brief: (§1)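 Dosing by pin tool came one day after lung cancer cell lines were seeded in 1536-well plates, using either one drug or a fixed anchor-drug dose plus five library-drug doses (not always all listed) in √10 steps. After 5 days, nuclei were counted on 4× images. Relative viability is treated-well nuclei count divided by vehicle-well nuclei count, and values are medians of duplicate plates.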

Alisertib + Pictilisib = compound: COc1cc(Nc2ncc3c(n2)-c2ccc(Cl)cc2C(c2c(F)cccc2OC)=NC3)ccc1C(=O)O [Alisertib] + CS(=O)(=O)N1CCN(Cc2cc3nc(-c4cccc5[nH]ncc45)nc(N4CCOCC4)c3s2)CC1 [Pictilisib] (partner 1 µM)
Method in brief: as §1

Alisertib + Crizotinib = compound: COc1cc(Nc2ncc3c(n2)-c2ccc(Cl)cc2C(c2c(F)cccc2OC)=NC3)ccc1C(=O)O [Alisertib] + C[C@@H](Oc1cc(-c2cnn(C3CCNCC3)c2)cnc1N)c1c(Cl)ccc(F)c1Cl [Crizotinib] (partner 1 µM)
Method in brief: as §1

Alisertib + Dasatinib = compound: COc1cc(Nc2ncc3c(n2)-c2ccc(Cl)cc2C(c2c(F)cccc2OC)=NC3)ccc1C(=O)O [Alisertib] + Cc1nc(Nc2ncc(C(=O)Nc3c(C)cccc3Cl)s2)cc(N2CCN(CCO)CC2)n1 [Dasatinib] (partner 0.075 µM)
Method in brief: as §1

| Cell Line | relative viability (Alisertib + Vorinostat; first compound 0.005 µM) | relative viability (Alisertib + Vorinostat; first compound 0.01581 µM) | relative viability (Alisertib + Vorinostat; first compound 0.05 µM) | relative viability (Alisertib + Vorinostat; first compound 0.1581 µM) | relative viability (Alisertib + Vorinostat; first compound 0.5 µM) | relative viability (Alisertib + Pictilisib; first compound 0.005 µM) | relative viability (Alisertib + Pictilisib; first compound 0.01581 µM) | relative viability (Alisertib + Pictilisib; first compound 0.05 µM) | relative viability (Alisertib + Pictilisib; first compound 0.1581 µM) | relative viability (Alisertib + Pictilisib; first compound 0.5 µM) | relative viability (Alisertib + Crizotinib; first compound 0.005 µM) | relative viability (Alisertib + Crizotinib; first compound 0.01581 µM) | relative viability (Alisertib + Crizotinib; first compound 0.05 µM) | relative viability (Alisertib + Crizotinib; first compound 0.1581 µM) | relative viability (Alisertib + Crizotinib; first compound 0.5 µM) | relative viability (Alisertib + Dasatinib; first compound 0.005 µM) | relative viability (Alisertib + Dasatinib; first compound 0.01581 µM) | relative viability (Alisertib + Dasatinib; first compound 0.05 µM) | relative viability (Alisertib + Dasatinib; first compound 0.1581 µM) | relative viability (Alisertib + Dasatinib; first compound 0.5 µM) |
| --- | --- | --- | --- | --- | --- | --- | --- | --- | --- | --- | --- | --- | --- | --- | --- | --- | --- | --- | --- | --- |
| HCC-78 | 0.369 | 0.281 | 0.234 | 0.241 | 0.217 | 0.172 | 0.253 | 0.168 | 0.145 | 0.0967 | 0.358 | 0.291 | 0.205 | 0.153 | 0.205 | 0.379 | 0.369 | 0.177 | 0.171 | 0.188 |
| HCC-366 | 0.171 | 0.0448 | 0.0208 | 0.0312 | 0.0381 | 0.0828 | 0.135 | 0.0183 | 0.0243 | 0.0203 | 0.686 | 0.456 | 0.0307 | 0.0254 | 0.0216 | 0.674 | 0.353 | 0.0282 | 0.0222 | 0.0468 |
| HCC-827 | 0.779 | 0.717 | 0.753 | 0.29 | 0.274 | 0.869 | 0.978 | 0.515 | 0.381 | 0.361 | 0.898 | 0.802 | 0.374 | 0.395 | 0.254 | 0.279 | 0.409 | 0.246 | 0.194 | 0.236 |
| HOP-62 | 0.497 | 0.443 | 0.174 | 0.102 | 0.138 | 0.579 | 0.757 | 0.373 | 0.149 | 0.103 | 0.833 | 0.743 | 0.232 | 0.212 | 0.104 | 0.537 | 0.688 | 0.433 | 0.185 | 0.154 |
| IA-LM | 0.986 | 0.87 | 0.564 | 0.189 | 0.0645 | 0.332 | 0.25 | 0.201 | 0.142 | 0.0927 | 0.831 | 0.608 | 0.485 | 0.256 | 0.104 | – | – | – | – | – |
| LC-2-ad | 0.454 | 0.313 | 0.24 | 0.177 | 0.161 | 0.116 | 0.251 | 0.107 | 0.108 | 0.105 | 0.369 | 0.378 | 0.266 | 0.353 | 0.202 | 0.315 | 0.33 | 0.263 | 0.202 | 0.133 |
| LCLC-97TM1 | 0.524 | 0.515 | 0.135 | 0.0952 | 0.0792 | 0.223 | 0.167 | 0.135 | 0.108 | 0.0964 | 0.334 | 0.298 | 0.138 | 0.128 | 0.152 | 0.773 | 0.712 | 0.709 | 0.192 | 0.173 |
| LCLC-103H | 0.67 | 0.561 | 0.352 | 0.323 | 0.396 | 0.588 | 0.687 | 0.573 | 0.211 | 0.206 | 1.04 | 1.04 | 0.719 | 0.374 | 0.412 | 0.455 | 0.509 | 0.423 | 0.26 | 0.158 |
| LK-2 | 0.229 | 0.326 | 0.167 | 0.176 | 0.186 | 0.573 | 0.566 | 0.314 | 0.329 | 0.26 | 0.226 | 0.232 | 0.224 | 0.233 | 0.288 | 0.353 | 0.267 | 0.212 | 0.192 | 0.153 |
| LOU-NH91 | 0.834 | 0.821 | 0.602 | 0.422 | 0.371 | 0.508 | 0.487 | 0.448 | 0.366 | 0.392 | 0.76 | 0.705 | 0.494 | 0.463 | 0.424 | 0.526 | 0.624 | 0.477 | 0.351 | 0.296 |
| LU99A | 0.467 | 0.428 | 0.177 | 0.16 | 0.187 | 0.404 | 0.341 | 0.252 | 0.159 | 0.151 | 0.513 | 0.451 | 0.245 | 0.217 | 0.182 | 0.502 | 0.513 | 0.323 | 0.183 | 0.17 |
| NCI-H522 | 0.823 | 0.897 | 0.822 | 0.521 | 0.549 | – | – | – | – | – | – | – | – | – | – | 0.812 | 0.91 | 0.67 | 0.323 | 0.434 |
| NCI-H1299 | – | – | – | – | – | 0.753 | 0.698 | 0.187 | 0.179 | 0.0871 | 0.965 | 0.727 | 0.671 | 0.348 | 0.252 | – | – | – | – | – |
| NCI-H1395 | 0.667 | 0.588 | 0.442 | 0.385 | 0.321 | 0.566 | 0.517 | 0.597 | 0.492 | 0.377 | – | – | – | – | – | 0.384 | 0.376 | 0.451 | 0.329 | 0.296 |
| NCI-H1563 | – | – | – | – | – | 0.646 | 0.608 | 0.606 | 0.717 | 0.296 | 0.741 | 0.911 | 0.788 | 0.809 | 0.601 | 0.441 | 0.544 | 0.442 | 0.414 | 0.387 |
| NCI-H1648 | – | 0.22 | 0.315 | 0.235 | 0.236 | – | – | – | – | – | – | – | – | – | – | – | – | – | – | – |
| NCI-H1703 | – | – | – | – | – | 0.246 | 0.22 | 0.182 | 0.163 | 0.155 | 0.711 | 0.501 | 0.294 | 0.37 | 0.113 | – | – | – | – | – |
| NCI-H1792 | – | – | – | – | – | 0.304 | 0.223 | 0.0811 | 0.0732 | 0.0644 | 0.939 | 0.91 | 0.543 | 0.201 | 0.0858 | 0.727 | 0.732 | 0.413 | 0.252 | 0.162 |
| NCI-H1793 | 0.465 | 0.41 | 0.267 | 0.191 | 0.221 | 0.327 | 0.297 | 0.23 | 0.18 | 0.208 | – | – | – | – | – | 0.397 | 0.242 | 0.186 | 0.11 | 0.116 |
| NCI-H2342 | 0.65 | 0.662 | 0.61 | 0.464 | 0.397 | – | – | – | – | – | – | – | – | – | – | 0.291 | 0.348 | 0.266 | 0.268 | 0.276 |
